Measured values as given in PubChem BioAssay (NCI).
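Briefly, cells in 96-well plates were exposed to five compound concentrations for 48 h, and endpoints were estimated by linear interpolation. TGI: total growth inhibition.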

Assays:
Test in all cases: DTP human tumour cell line panel, 48 h
SR leukemia = tested on: SR leukemia
HL-60(TB) leukemia = tested on: HL-60(TB) leukemia
OVCAR-8 ovarian = tested on: OVCAR-8 ovarian
DU-145 prostate = tested on: DU-145 prostate
SW-620 colon = tested on: SW-620 colon
OVCAR-5 ovarian = tested on: OVCAR-5 ovarian
LOX IMVI melanoma = tested on: LOX IMVI melanoma
SNB-75 CNS = tested on: SNB-75 CNS
SK-MEL-2 melanoma = tested on: SK-MEL-2 melanoma
HOP-62 NSCLC = tested on: HOP-62 NSCLC
CCRF-CEM leukemia = tested on: CCRF-CEM leukemia
U251 CNS = tested on: U251 CNS

Q: Which TGI (SR leukemia) does the source give for `NCCCCCNOCCCN` here?
A: Its TGI is > 100 µM.

Q: What about the TGI (HL-60(TB) leukemia) of the same compound?
A: The TGI was > 100 µM.

Q: And the TGI (OVCAR-8 ovarian)?
A: The TGI was > 100 µM.

Q: And the TGI (DU-145 prostate)?
A: The TGI was > 100 µM.

Q: What about the TGI (SW-620 colon) of the same compound?
A: Its TGI is > 100 µM.

Q: What about the TGI (OVCAR-5 ovarian) of the same compound?
A: The TGI was > 100 µM.

Q: And the TGI (LOX IMVI melanoma)?
A: Its TGI is > 100 µM.

Q: What about the TGI (SNB-75 CNS) of the same compound?
A: Its TGI is > 100 µM.

Q: And the TGI (SK-MEL-2 melanoma)?
A: The TGI was > 100 µM.

Q: And the TGI (HOP-62 NSCLC)?
A: Its TGI is > 100 µM.

Q: And the TGI (CCRF-CEM leukemia)?
A: Its TGI is > 100 µM.

Q: What about the TGI (U251 CNS) of the same compound?
A: Its TGI is > 100 µM.

Q: `Cc1ccc(-n2cc(-c3ccc(Cl)cc3)c(C#N)c2N)cc1` was tested. Which TGI (SR leukemia) did it give?
A: The TGI was > 100 µM.

Q: What about the TGI (HL-60(TB) leukemia) of the same compound?
A: Its TGI is 90.7 µM.

Q: What about the TGI (OVCAR-8 ovarian) of the same compound?
A: The TGI was 30.5 µM.

Q: And the TGI (DU-145 prostate)?
A: The TGI was 71.4 µM.

Q: What about the TGI (SW-620 colon) of the same compound?
A: The TGI was 26 µM.

Q: And the TGI (OVCAR-5 ovarian)?
A: The TGI was 30.6 µM.

Q: And the TGI (LOX IMVI melanoma)?
A: Its TGI is 29.8 µM.

Q: And the TGI (SNB-75 CNS)?
A: Its TGI is 47.9 µM.

Q: And the TGI (SK-MEL-2 melanoma)?
A: The TGI was 29.4 µM.

Q: And the TGI (HOP-62 NSCLC)?
A: The TGI was 31.9 µM.

Q: What about the TGI (CCRF-CEM leukemia) of the same compound?
A: The TGI was > 100 µM.

Q: And the TGI (U251 CNS)?
A: Its TGI is 27.3 µM.

Q: For `CCOC(=O)c1ccc(Nc2cnc3ccc(C(F)(F)F)cc3n2)cc1`, which TGI (SR leukemia) is on record?
A: Its TGI is 52.6 µM.

Q: What about the TGI (HL-60(TB) leukemia) of the same compound?
A: The TGI was 37.7 µM.

Q: What about the TGI (OVCAR-8 ovarian) of the same compound?
A: The TGI was 26 µM.

Q: What about the TGI (DU-145 prostate) of the same compound?
A: Its TGI is 47.7 µM.

Q: And the TGI (SW-620 colon)?
A: The TGI was 31.7 µM.

Q: And the TGI (OVCAR-5 ovarian)?
A: The TGI was 74.7 µM.

Q: What about the TGI (LOX IMVI melanoma) of the same compound?
A: The TGI was 29.3 µM.

Q: And the TGI (SNB-75 CNS)?
A: Its TGI is 42.8 µM.

Q: And the TGI (SK-MEL-2 melanoma)?
A: The TGI was 33.8 µM.

Q: What about the TGI (HOP-62 NSCLC) of the same compound?
A: The TGI was 46.6 µM.

Q: And the TGI (CCRF-CEM leukemia)?
A: The TGI was 36.6 µM.

Q: And the TGI (U251 CNS)?
A: Its TGI is 31.8 µM.

Q: `N#CCN(Cc1ccccc1)[C@@H]1CCC[C@]1(O)C#Cc1ccc2c(c1)OCO2` was tested. Which TGI (SR leukemia) did it give?
A: The TGI was 40.9 µM.

Q: And the TGI (HL-60(TB) leukemia)?
A: The TGI was 45.1 µM.

Q: What about the TGI (OVCAR-8 ovarian) of the same compound?
A: The TGI was 32.2 µM.

Q: And the TGI (DU-145 prostate)?
A: Its TGI is > 100 µM.

Q: What about the TGI (SW-620 colon) of the same compound?
A: The TGI was 58.6 µM.

Q: And the TGI (OVCAR-5 ovarian)?
A: Its TGI is 33.5 µM.

Q: And the TGI (LOX IMVI melanoma)?
A: Its TGI is 30.9 µM.

Q: What about the TGI (SNB-75 CNS) of the same compound?
A: Its TGI is > 100 µM.

Q: What about the TGI (SK-MEL-2 melanoma) of the same compound?
A: Its TGI is 33.1 µM.

Q: What about the TGI (HOP-62 NSCLC) of the same compound?
A: Its TGI is 30.8 µM.

Q: What about the TGI (CCRF-CEM leukemia) of the same compound?
A: The TGI was 48.1 µM.

Q: And the TGI (U251 CNS)?
A: The TGI was 33.9 µM.

Q: Which results are given for `O=C(O)CO/N=C1/C(c2c(O)[nH]c3ccccc23)=Nc2ccccc21`?
A: TGI (SR leukemia): > 100 µM; TGI (HL-60(TB) leukemia): > 100 µM; TGI (OVCAR-8 ovarian): > 100 µM; TGI (DU-145 prostate): > 100 µM; TGI (SW-620 colon): > 100 µM; TGI (OVCAR-5 ovarian): > 100 µM; TGI (LOX IMVI melanoma): > 100 µM; TGI (SNB-75 CNS): 74.4 µM; TGI (SK-MEL-2 melanoma): 80.1 µM; TGI (HOP-62 NSCLC): > 100 µM; TGI (CCRF-CEM leukemia): > 100 µM; TGI (U251 CNS): > 100 µM

Q: For `O=C1Nc2ccc(Br)cc2/C1=C/C(=O)c1ccccc1`, which TGI (SR leukemia) is on record?
A: The TGI was > 24.9 µM.

Q: What about the TGI (HL-60(TB) leukemia) of the same compound?
A: The TGI was > 29.1 µM.

Q: What about the TGI (OVCAR-8 ovarian) of the same compound?
A: The TGI was 5.31 µM.

Q: What about the TGI (DU-145 prostate) of the same compound?
A: The TGI was 23.8 µM.

Q: What about the TGI (SW-620 colon) of the same compound?
A: Its TGI is 6.42 µM.

Q: And the TGI (OVCAR-5 ovarian)?
A: The TGI was 53.6 µM.

Q: And the TGI (LOX IMVI melanoma)?
A: The TGI was 4.02 µM.

Q: And the TGI (SNB-75 CNS)?
A: The TGI was 32 µM.

Q: What about the TGI (SK-MEL-2 melanoma) of the same compound?
A: The TGI was 32.3 µM.

Q: What about the TGI (HOP-62 NSCLC) of the same compound?
A: The TGI was 61.2 µM.

Q: And the TGI (CCRF-CEM leukemia)?
A: Its TGI is 8.36 µM.

Q: And the TGI (U251 CNS)?
A: The TGI was 36.7 µM.

Q: Which results are given for `CC(=O)NC1C(OCc2ccccc2)OC(CO)C(O)C1OCC(=O)N1CCCC1C(=O)NC(CCC(=O)NCCCCCNc1c2ccccc2nc2cccc([N+](=O)[O-])c12)C(N)=O` (stereo not drawn)?
A: TGI (SR leukemia): 5.01 µM; TGI (HL-60(TB) leukemia): 3.98 µM; TGI (OVCAR-8 ovarian): 0.0817 µM; TGI (DU-145 prostate): 0.107 µM; TGI (SW-620 colon): 0.0424 µM; TGI (OVCAR-5 ovarian): 0.06 µM; TGI (LOX IMVI melanoma): 0.733 µM; TGI (SNB-75 CNS): 0.479 µM; TGI (SK-MEL-2 melanoma): 0.0456 µM; TGI (HOP-62 NSCLC): 0.125 µM; TGI (CCRF-CEM leukemia): 1.08 µM; TGI (U251 CNS): 0.206 µM

Q: Which results are given for `CC(C)OP(=O)(OC(C)C)C(Nc1cccc(C(F)(F)F)c1)c1ccccc1` (stereo not drawn)?
A: TGI (SR leukemia): > 100 µM; TGI (HL-60(TB) leukemia): > 100 µM; TGI (OVCAR-8 ovarian): > 100 µM; TGI (DU-145 prostate): > 100 µM; TGI (OVCAR-5 ovarian): > 100 µM; TGI (LOX IMVI melanoma): > 100 µM; TGI (SNB-75 CNS): > 100 µM; TGI (SK-MEL-2 melanoma): > 100 µM; TGI (HOP-62 NSCLC): > 100 µM; TGI (CCRF-CEM leukemia): > 100 µM; TGI (U251 CNS): > 100 µM

Q: Which TGI (SR leukemia) does the source give for `CC(Cc1ccc2c(c1)OCO2)N(C)C(=O)C1=CCN(C)CC1` (stereo not drawn) here?
A: The TGI was > 100 µM.

Q: And the TGI (HL-60(TB) leukemia)?
A: The TGI was > 100 µM.

Q: What about the TGI (OVCAR-8 ovarian) of the same compound?
A: The TGI was > 100 µM.

Q: And the TGI (DU-145 prostate)?
A: The TGI was > 100 µM.

Q: What about the TGI (SW-620 colon) of the same compound?
A: Its TGI is > 100 µM.

Q: And the TGI (OVCAR-5 ovarian)?
A: Its TGI is > 100 µM.

Q: What about the TGI (LOX IMVI melanoma) of the same compound?
A: Its TGI is > 100 µM.

Q: What about the TGI (SNB-75 CNS) of the same compound?
A: The TGI was > 100 µM.

Q: And the TGI (SK-MEL-2 melanoma)?
A: Its TGI is > 100 µM.

Q: What about the TGI (HOP-62 NSCLC) of the same compound?
A: Its TGI is > 100 µM.

Q: What about the TGI (CCRF-CEM leukemia) of the same compound?
A: Its TGI is > 100 µM.

Q: And the TGI (U251 CNS)?
A: Its TGI is > 100 µM.

Q: How did the TGI (SR leukemia) turn out when `COc1ccccc1Cn1[nH]c(=O)c2cc([N+](=O)[O-])ccc21` was run?
A: Its TGI is > 100 µM.

Q: And the TGI (HL-60(TB) leukemia)?
A: The TGI was > 100 µM.

Q: And the TGI (OVCAR-8 ovarian)?
A: The TGI was > 100 µM.

Q: And the TGI (DU-145 prostate)?
A: Its TGI is > 100 µM.

Q: What about the TGI (SW-620 colon) of the same compound?
A: Its TGI is > 100 µM.

Q: What about the TGI (OVCAR-5 ovarian) of the same compound?
A: The TGI was > 100 µM.

Q: And the TGI (LOX IMVI melanoma)?
A: Its TGI is > 100 µM.

Q: What about the TGI (SNB-75 CNS) of the same compound?
A: The TGI was > 100 µM.

Q: What about the TGI (SK-MEL-2 melanoma) of the same compound?
A: Its TGI is > 100 µM.

Q: What about the TGI (HOP-62 NSCLC) of the same compound?
A: Its TGI is > 100 µM.

Q: And the TGI (CCRF-CEM leukemia)?
A: Its TGI is > 100 µM.
